Test results as given in patent publication US20230149419A1, “COMPOSITION FOR PREVENTING OR TREATING NEUROINFLAMMATORY DISEASES, COMPRISING CHLORPROMAZINE” (GliaCellTech Inc., priority 2020, published 2023).

Key:
[1] = tested on: Nr1d1 mRNA in primary microglia from wild-type mice; experiment: Nr1d1 mRNA expression in primary microglia (qRT-PCR), wild-type; type: cell-based, mouse
Protocol: (§1) Effects were analyzed in the experimental group not treated with chlorpromazine on the obtained microglia and the experimental group treated with chlorpromazine at a dose of 0.5 μM.

[2] = tested on: primary microglia from Psen2 mutation (KI/+) mouse model of Alzheimer's disease; experiment: fAβ42-induced cytokine secretion in primary microglia (ELISA), Psen2 mutation; type: cell-based
Protocol: (§2) Primary microglia were obtained from wild-type mice and Psen2^N141I/+ mice with Alzheimer's disease. Specifically, brains were excised from neonatal mice 1 to 3 days old and cells were obtained therefrom. The cells were cultured in Dulbecco's modified Eagle's medium (DMEM, Corning) supplemented with 10% heat-inactivated fetal bovine serum (HI-FBS, Hyclone) and 1% penicillin-streptomycin (Hyclone). Primary microglia were isolated in vitro by tapping after 12 days of culturing. Purity of primary microglia was estimated by immunostaining with an antibody against Iba-1, which is a microglial marker.
(§3) Specifically, FITC-conjugated amyloid beta 1-42 was prepared according to the follow reference (Cho, M.-H. et al. “Autophagy in microglia degrades extracellular β-amyloid fibrils and regulates the NLRP3 inflammasome.” Autophagy 10, 1761-1775 (2014)).
(§4) The primary cultures of microglia prepared in Example 5-1 from the Psen2 mutation (KI/+) mouse model of Alzheimer's disease and the wild-type (WT) mice were directly treated with 4 μM of the fibrilized amyloid beta 1-42 (fAβ42), followed by incubation with or without 0.5 μM chlorpromazine.

[3] = tested on: elderly with schizophrenia; details: taken for a long time at the current market dose; cited from earlier work
[4] = tested on: Psen2 mutation mouse model of Alzheimer's disease; experiment: Y-maze test, Psen2 mutation mouse model of Alzheimer's disease; type: in vivo; details: for Y-maze Alternation % / Y-maze No. of Arm entry: chlorpromazine 0.25 mg/kg i.p., mean±SEM
Protocol: Specifically, the Y-maze was used to evaluate spatial working memory. The assay was conducted in white plastic arms of a Y-shaped maze. A mouse was placed in the center of the maze and was allowed to freely explore the arms for 5 min. The experiment was recorded with EthoVision software (Noldus). The number of arm entries and the number of triads were analyzed to calculate the percentage of alternation by dividing the number of three consecutive arm entries (triads) by the number of possible triads×100 (total arm entries−2).
An examination was made to see whether LPS-induced inflammation causes memory decline and chlorpromazine reverses the LPS-induced inflammation in disease animal models. To analyze memory and behavior performance, the Y-maze test as in Example 4 was conducted.

[5] = tested on: primary microglia from Psen2^N141I/+ mice with Alzheimer's disease; experiment: LPS-induced cytokine mRNA expression in primary microglia (qRT-PCR), Psen2 mutation; type: cell-based, mouse
Protocol: as §2
(§5) In this regard, the primary microglia were preincubated with or without 0.5 μM chlorpromazine for 30 min before LPS treatment. Anti-inflammatory effects were compared and analyzed between the test groups.
The culture of each group was measured for microglial mRNA expression levels of the target cytokines by qRT-PCR (quantitative RT-PCR). Specifically, RNA was isolated from the microglia and cDNA was synthesized using an ImProm-II Reverse Transcriptase kit (Promega). PCR primers were commercially available (Cosmo Genetech). qRT-PCR was performed using Taq Polymerase (Invitrogen) and mouse cDNA-specific primers listed in Table 6, below. In addition, TOPreal™ qPCR 2×PreMIX (SYBR Green with low ROX) (Enzynomics) was used. Amplification (50 cycles) was performed for 50 cycles with all primers in a CFX96 Real-Time System (Bio-Rad). Actb was used as the reference genes for normalization.

[6] = tested on: primary microglia from wild-type (WT) mice; experiment: fAβ42-induced cytokine secretion in primary microglia (ELISA), wild-type; type: cell-based, mouse; details: 4 μM fAβ42, 0.5 μM chlorpromazine (Group 24)
Protocol: as §2, §3, §4

[7] = tested on: wild-type mice; experiment: Serum cytokine levels after low-concentration LPS injection, wild-type mice
Protocol: To investigate neuroinflammation at various concentrations of LPS, blood was extracted from cheek veins in the wild-type mice in group 2 and the mouse model of Alzheimer's disease in group 4 20 hours after the injection of LPS. The sera obtained by centrifugation were quantitatively analyzed for IL-6, TNFα, CCL2, CXCL1, and CCL5 by using ELISA kit (R&D Systems) according to the manufacturer's instruction. In addition, the same procedure was conducted for the wild-type mice without LPS injection of group 1 and the Psen2^N141I mutation mouse model of Alzheimer's disease of group 3 to obtain sera which were then analyzed for the proteins by using the ELISA kit according to the manufacturer's instruction.
The wild-type mice and the Psen2 mutation mouse model of Alzheimer's disease obtained in Example 1 were intraperitoneally injected with chlorpromazine (0.25 mg/body weight kg) at 14:00 and then with such a low concentration of LPS (0.35 μg/kg) as to be ineffective for inflammation in wild-type mice at 18:00 (Zeitgeber time light-on at 11:00 and 07:00). After 20 hours, the mice were monitored for inflammatory responses and memory behavior. The concentration of chlorpromazine (0.25 mg/body weight kg) used in this assay is tens- to hundreds-fold lower than those conventionally used as an antipsychotic (25 mg/injection, 3 times/day).
After the experiment conducted as in the scheme of FIG. 11A, the wild-type and the Psen2^N141I/+ Alzheimer's disease mice, both intraperitoneally injected with LPS, were analyzed for inflammatory response according to chlorpromazine treatment as measured for serum levels of the circadian clock-controlled cytokines (IL-6, CXCL1, CCL2, and CCL5) by ELISA as in Example 2.

[8] = tested on: REV-ERBα protein in primary microglia from Psen2 mouse model of Alzheimer's disease; experiment: REV-ERBα protein expression in primary microglia (western blotting), Psen2 mutation; type: cell-based
Protocol: Effects were analyzed in the experimental group not treated with chlorpromazine on the obtained microglia and the experimental group treated with chlorpromazine at a dose of 0.5 μM. For analysis of REV-ERBα protein expression levels, western blotting was carried out. Specifically, primary microglia were lysed in a 1% Triton X-100 lysis buffer (1% Triton X-100, 250 mM sucrose, 1 mM EDTA, 1 mM phenylmethylsulfonyl fluoride, and 50 mM NaCl in 20 mM Tris-HCl, pH 7.4) with 1×protease and phosphatase inhibitors (Thermo Fisher Scientific) and 0.1 M dithiothreitol (Sigma-Aldrich). The cell lysates were separated by sodium dodecyl sulfate-polyacrylamide gel electrophoresis and transferred to polyvinylidene fluoride membranes. The membranes were incubated with the appropriate primary antibodies, and bound antibodies were detected by species-specific, horseradish peroxidase-conjugated secondary antibodies. Chemiluminescence detection was performed to analyze the protein bands of interest.

[9] = tested on: primary microglia from wild-type mice; experiment: LPS-induced inflammatory cytokine secretion in primary microglia (ELISA), wild-type; type: cell-based, mouse
Protocol: as §2, §5

[10] = tested on: Nr1d1 mRNA in primary microglia from Psen2 mouse model of Alzheimer's disease; experiment: Nr1d1 mRNA expression in primary microglia (qRT-PCR), Psen2 mutation; type: cell-based
Protocol: as §1

[11] = KI/+ microglia, 4 μM fAβ42, 0.5 μM chlorpromazine (Group 26)
[12] = Alzheimer's disease model/LPS(+)/CPZ(+) (Group 48), LPS 0.35 μg/kg
[13] = Alzheimer's disease model/LPS(−)/CPZ(+) (Group 46)
[14] = KI/+ microglia, LPS 1 μg/mL 12 h, 0.5 μM chlorpromazine (Group 8)
[15] = chlorpromazine 0.25 mg/kg i.p., LPS 0.35 μg/kg i.p., 20 h after LPS (Group 38)
[16] = KI/+ microglia, no LPS, 0.5 μM chlorpromazine (Group 30), mean±SEM
[17] = Psen2 mutation microglia, group 30, chlorpromazine 0.5 μM
[18] = WT microglia, LPS 1 μg/mL 12 h, preincubated 0.5 μM chlorpromazine 30 min (Group 6)

For `CN(C)CCCN1c2ccccc2Sc2ccc(Cl)cc21` [CPZ, 3-(2-chloro-10H-phenothiazin-10-yl)-N,N-dimethyl-propan-1-amine], the “Nr1d1 mRNA expression” value ([1]; WT microglia, no LPS, 0.5 μM chlorpromazine (Group 28), mean±SEM) was 0.860 ± 0.040 fold, the “Nr1d1 mRNA expression level (in words)” value ([1]; wild-type microglia, chlorpromazine 0.5 μM) was “ineffective” and the “Secreted inflammatory cytokine CCL2” value [2, 11] was 1645.882 pg/mL. For the same compound, the “Secreted inflammatory cytokine CCL5” value [2, 11] was 1818.188 pg/mL, the “Secreted inflammatory cytokine CXCL1” value [2, 11] was 1528.621 pg/mL and the “Secreted inflammatory cytokine IL-6” value [2, 11] was 1336.446 pg/mL. The “Secreted inflammatory cytokine TNF-α” value [2, 11] was 1352.738 pg/mL, the “anti-inflammatory effect after fAβ42 (in words)” value ([2]; microglia from Psen2 mutation mouse model (group 26), 0.5 μM chlorpromazine) was “exhibited an anti-inflammatory effect” and the “levels of TNF-α after fAβ42 (in words)” value ([2]; microglia from wild-type mice and Psen2 mutation model) was “no impacts”. For the same compound, the “side effect on mortality” value [3] was “increasing the mortality rate”, the “Y-maze Alternation %” value [4, 12] was 72.000 ± 3.964% and the “Y-maze No. of Arm entry” value [4, 12] was 16.500 ± 1.368. For the same compound, the “Y-maze Alternation %” value [4, 13] was 77.714 ± 4.699%, the “Y-maze No. of Arm entry” value [4, 13] was 18.286 ± 1.063 and the “LPS-induced memory decline, arm alternation in Y-maze (in words)” value ([4]; LPS-injected Psen2 mutation mouse model, group 48) was “sufficient recovery”. For the same compound, the “memory performance, arm alternation in Y-maze (in words)” value ([4]; Psen2 mutation mice, chlorpromazine alone vs no drug treatment) was “no significant different memory performance”, the “Inflammatory cytokine expression Ccl2 (mRNA)” value [5, 14] was 0.670 fold and the “Inflammatory cytokine expression Ccl5 (mRNA)” value [5, 14] was 0.730 fold. The “Inflammatory cytokine expression Cxcl1 (mRNA)” value [5, 14] was 0.692 fold, the “Inflammatory cytokine expression Il-6 (mRNA)” value [5, 14] was 0.538 fold and the “Inflammatory cytokine expression Tnf (mRNA)” value [5, 14] was 1.020 fold. For the same compound, the “mRNA expression of IL-6, CXCL1, CCL2, and CCL5 (in words)” value ([5]; Psen2 mutation microglia, groups 7 vs 8, chlorpromazine 0.5 μM, LPS) was “decrease the mRNA expression”, the “mRNA level of TNF-α (in words)” value ([5]; across all the groups (WT and KI/+ microglia), LPS) was “no impacts” and the “Secreted inflammatory cytokine CCL2” value [6] was 1062.537 pg/mL. The “Secreted inflammatory cytokine CCL5” value [6] was 1204.562 pg/mL, the “Secreted inflammatory cytokine CXCL1” value [6] was 1237.646 pg/mL and the “Secreted inflammatory cytokine IL-6” value [6] was 1164.200 pg/mL. For the same compound, the “Secreted inflammatory cytokine TNF-α” value [6] was 1218.952 pg/mL, the “Inflammatory cytokine secreted IL-6 (serum)” value ([7]; chlorpromazine 0.25 mg/kg i.p. 4 h before LPS 0.35 μg/kg i.p., 20 h after LPS (Group 38)) was 68.214 pg/mL and the “Inflammatory cytokine secreted CCL2 (serum)” value [7, 15] was 117.032 pg/mL. The “Inflammatory cytokine secreted CCL5 (serum)” value [7, 15] was 80.808 pg/mL, the “Inflammatory cytokine secreted CXCL1 (serum)” value [7, 15] was 172.313 pg/mL and the “Inflammatory cytokine secreted TNF-α (serum)” value [7, 15] was 62.634 pg/mL. For the same compound, the “production of the circadian clock-controlled cytokines in serum (in words)” value ([7]; groups 37 and 38, LPS 0.35 μg/kg) was “did not affect”, the REV-ERBα protein expression [8, 16] was 0.882 ± 0.032 fold and the “REV-ERBα protein expression level (in words)” value [8, 17] was “restored to the level in the wild-type group”. The “Inflammatory cytokine secreted CCL2” value [9, 18] was 948.716 pg/mL, the “Inflammatory cytokine secreted CCL5” value [9, 18] was 948.716 pg/mL and the “Inflammatory cytokine secreted CXCL1” value [9, 18] was 937.727 pg/mL. The “Inflammatory cytokine secreted TNF-α” value [9, 18] was 1414.237 pg/mL, the “Inflammatory cytokine secreted IL-6” value ([9]; WT microglia, LPS 1 μg/mL 12 h, preincubated 0.5 μM chlorpromazine 30 min (Group 6), mean) was 2228.546 pg/mL and the “protein levels of circadian clock-controlled cytokines (in words)” value ([9]; wild-type microglia, groups 5 and 6, chlorpromazine 0.5 μM, LPS) was “not affected”. The “Nr1d1 mRNA expression” value [10, 16] was 0.976 ± 0.094 fold and the “Nr1d1 mRNA expression level (in words)” value [10, 17] was “restored to the level in the wild-type group”.
